Values after ≈ are worked out from the molar mass of the structure shown.
What was measured:
Assay type in all cases: functional
[1] = tested on: Staphylococcus aureus; assay: Antibacterial activity against Staphylococcus aureus MB2865 infected in iv dosed mouse assessed as >= log10 cfu kidney burden reduction administered bid after 24 hrs
[2] = tested on: Enterococcus faecalis; assay: Antibacterial activity against Enterococcus faecalis C21560 by turbidity method; details: read-out: MIC100
[3] = tested on: Streptococcus pneumoniae; assay: Antibacterial activity against Streptococcus pneumoniae CL2883 by turbidity method; details: read-out: MIC100
[4] = tested on: Staphylococcus aureus; assay: Antibacterial activity against Staphylococcus aureus MB2865 by turbidity method; details: read-out: MIC100
[5] = tested on: Staphylococcus aureus; assay: Antibacterial activity against Staphylococcus aureus MB2865 infected in mouse assessed as log kidney burden reduction administered at 4 mg/kg, iv bid after 24 hrs relative to control
[6] = tested on: Staphylococcus aureus; assay: Ratio of vancomycin ED99 to compound ED99 for Staphylococcus aureus MB2865 infected in iv dosed mouse

MIC [2] [µg/mL]	MIC [3] [µg/mL]	MIC [4] [µg/mL]	SMILES	ED99 [1] [mg/kg]	CFU [5]	Ratio [6]
0.03 (≈ 0.0207 µM)	0.0007 (≈ 0.000484 µM)	0.0225 (≈ 0.0156 µM)	CO/C(C)=C1/NC(=O)[C@H]([C@@H](C)O)NC(=O)c2csc(n2)-c2cc(O)c(-c3nc(CNCc4cncnc4)cs3)nc2-c2csc(n2)[C@@H]2COC(=O)c3c4c5c(cccc5n3O)COC(=O)[C@@H](O[C@H]3C[C@](C)(O)[C@H](N(C)C)[C@H](C)O3)[C@@H](OC4)[C@H](NC(=O)c3csc1n3)c1nc(cs1)C(=O)N2	0.13		
0.06 (≈ 0.0429 µM)	0.00046 (≈ 0.000329 µM)	0.03 (≈ 0.0215 µM)	CO/C(C)=C1/NC(=O)[C@H]([C@@H](C)O)NC(=O)c2csc(n2)-c2cc(O)c(-c3nc(CNCCO)cs3)nc2-c2csc(n2)[C@@H]2COC(=O)c3c4c5c(cccc5n3O)COC(=O)[C@@H](O[C@H]3C[C@](C)(O)[C@H](N(C)C)[C@H](C)O3)[C@@H](OC4)[C@H](NC(=O)c3csc1n3)c1nc(cs1)C(=O)N2	0.32		
0.12 (≈ 0.0802 µM)	0.0075 (≈ 0.00501 µM)	0.06 (≈ 0.0401 µM)	CO/C(C)=C1/NC(=O)[C@H]([C@@H](C)O)NC(=O)c2csc(n2)-c2cc(O)c(-c3nc(CNC(=O)CCN4CCOCC4)cs3)nc2-c2csc(n2)[C@@H]2COC(=O)c3c4c5c(cccc5n3O)COC(=O)[C@@H](O[C@H]3C[C@](C)(O)[C@H](N(C)C)[C@H](C)O3)[C@@H](OC4)[C@H](NC(=O)c3csc1n3)c1nc(cs1)C(=O)N2	>0.5		
			CN[C@H](CC(C)C)C(=O)N[C@H]1C(=O)N[C@@H](CC(N)=O)C(=O)N[C@H]2C(=O)N[C@H]3C(=O)N[C@H](C(=O)N[C@H](C(=O)O)c4cc(O)cc(O)c4-c4cc3ccc4O)[C@H](O)c3ccc(c(Cl)c3)Oc3cc2cc(c3O[C@@H]2O[C@H](CO)[C@@H](O)[C@H](O)[C@H]2O[C@H]2C[C@](C)(N)[C@H](O)[C@H](C)O2)Oc2ccc(cc2Cl)[C@H]1O [VANCOMYCIN]	0.17		
0.0075 (≈ 0.00542 µM)	0.00095 (≈ 0.000687 µM)	0.03 (≈ 0.0217 µM)	CO/C(C)=C1/NC(=O)[C@H]([C@@H](C)O)NC(=O)c2csc(n2)-c2cc(O)c(-c3nc(CN(C)C)cs3)nc2-c2csc(n2)[C@@H]2COC(=O)c3c4c5c(cccc5n3O)COC(=O)[C@@H](O[C@H]3C[C@](C)(O)[C@H](N(C)C)[C@H](C)O3)[C@@H](OC4)[C@H](NC(=O)c3csc1n3)c1nc(cs1)C(=O)N2	>0.5		
0.25 (≈ 0.17 µM)	0.0038 (≈ 0.00259 µM)	0.06 (≈ 0.0409 µM)	CO/C(C)=C1/NC(=O)[C@H]([C@@H](C)O)NC(=O)c2csc(n2)-c2cc(O)c(-c3nc(CNC(=O)C(C)NC(N)=O)cs3)nc2-c2csc(n2)[C@@H]2COC(=O)c3c4c5c(cccc5n3O)COC(=O)[C@@H](O[C@H]3C[C@](C)(O)[C@H](N(C)C)[C@H](C)O3)[C@@H](OC4)[C@H](NC(=O)c3csc1n3)c1nc(cs1)C(=O)N2 (some centres undefined)	0.02		200
0.06 (≈ 0.0443 µM)	0.00047 (≈ 0.000347 µM)	0.077 (≈ 0.0568 µM)	CO/C(C)=C1/NC(=O)[C@H]([C@@H](C)O)NC(=O)c2csc(n2)-c2cc(O)c(-c3nc(CN)cs3)nc2-c2csc(n2)[C@@H]2COC(=O)c3c4c5c(cccc5n3O)COC(=O)[C@@H](O[C@H]3C[C@](C)(O)[C@H](N(C)C)[C@H](C)O3)[C@@H](OC4)[C@H](NC(=O)c3csc1n3)c1nc(cs1)C(=O)N2	>0.5		

SMILES	MIC [2] [µg/mL]	MIC [3] [µg/mL]	MIC [4] [µg/mL]	ED99 [1] [mg/kg]	CFU [5]	Ratio [6]
CO/C(C)=C1/NC(=O)[C@H]([C@@H](C)O)NC(=O)c2csc(n2)-c2cc(O)c(-c3nc(CNC(=O)CN4CCN(C)CC4)cs3)nc2-c2csc(n2)[C@@H]2COC(=O)c3c4c5c(cccc5n3O)COC(=O)[C@@H](O[C@H]3C[C@](C)(O)[C@H](N(C)C)[C@H](C)O3)[C@@H](OC4)[C@H](NC(=O)c3csc1n3)c1nc(cs1)C(=O)N2	0.09 (≈ 0.0602 µM)	0.0007 (≈ 0.000468 µM)	0.0375 (≈ 0.0251 µM)	0.28	1.08	
CO/C(C)=C1/NC(=O)[C@H]([C@@H](C)O)NC(=O)c2csc(n2)-c2cc(O)c(-c3nc(CNC(=O)CN4CCOCC4)cs3)nc2-c2csc(n2)[C@@H]2COC(=O)c3c4c5c(cccc5n3O)COC(=O)[C@@H](O[C@H]3C[C@](C)(O)[C@H](N(C)C)[C@H](C)O3)[C@@H](OC4)[C@H](NC(=O)c3csc1n3)c1nc(cs1)C(=O)N2	0.015 (≈ 0.0101 µM)	0.00046 (≈ 0.00031 µM)	0.0075 (≈ 0.00506 µM)	>0.5		
CO/C(C)=C1/NC(=O)[C@H]([C@@H](C)O)NC(=O)c2csc(n2)-c2cc(O)c(-c3nc(CNC(=O)CN(C)C)cs3)nc2-c2csc(n2)[C@@H]2COC(=O)c3c4c5c(cccc5n3O)COC(=O)[C@@H](O[C@H]3C[C@](C)(O)[C@H](N(C)C)[C@H](C)O3)[C@@H](OC4)[C@H](NC(=O)c3csc1n3)c1nc(cs1)C(=O)N2	0.25 (≈ 0.174 µM)	0.0075 (≈ 0.00521 µM)	0.06 (≈ 0.0417 µM)	>0.5		

Source: ChEMBL document CHEMBL2311426, “Synthesis and antibacterial activity of novel water-soluble nocathiacin analogs” (Bioorg Med Chem Lett, 2013)
